Source: a melting point compilation (Tetko et al.; mined from patent text by program, amines drawn as free bases though some values may be those of a salt)
Non-standard residues stand in square brackets, D forms with d. Residues, ends and D or L forms follow the SMILES beside them. Hyp = O=C(O)[C@@H]1C[C@@H](O)CN1

Row | melting point [°C] | SMILES
1 | 150 to 154 | CCOc1ccc(CN2CCc3cc(O)ccc3C2)cc1OCC
2 | 230 to 233 | Cn1nccc1-n1ccnc1S(N)(=O)=O
3 | 161 to 162 | Cc1c(NC(=O)c2ccc(-c3ccc(F)cc3)c(F)c2)ccc2cc(CN3CCCCC3)cnc12
4 | 158 to 160 | NCC(=O)N1C[C@H](O)C[C@H]1C(=O)N[C@@H](CCC(=O)O)C(=O)O (H-Gly-[Hyp]-Glu-OH)
5 | 55 to 64 | O=C(O)CCC1(c2cccs2)SCCS1
6 | 94 to 95 | CC(C)CC1(C(C)C(=O)O)CCN(CCc2ccccc2)C1=O (stereo unspecified)
7 | 93 to 97 | CCCCCCCCCCCCCCCCC(C(=O)O)S(C)=O (stereo unspecified)
8 | 132 to 137 | CCOC(=O)c1c(C2CC2)nc(CC)n1Cc1ccc2oc(-c3ccccc3-c3nnn[nH]3)c(Br)c2c1
9 | 79 to 84 | O=C1CCCCc2ccccc21
10 | 140 | CN1CCN(C(=O)COc2cc(-c3ccccc3)nc3ccccc23)CC1=O
11 | 116 to 121 | CC(=O)NC1CCCCC1CCC(=O)O (stereo unspecified)
12 | 289 to 291 | CC(C)(C)c1ccc(C(=O)Nc2cn3cc(-n4ccnc4)ccc3n2)cc1
13 | 115 to 117 | COc1ccc(C(Cc2ccc(OCCc3nc(-c4ccccc4)oc3C)cc2)C(=O)O)cc1 (stereo unspecified)
14 | 185 | Cc1cn(C)c2cc(C(C)C)c(Oc3cnc(N)nc3N)cc12
15 | 99 to 101 | O=C1NC(=O)C(N(CC#Cc2ccc(F)cc2)c2ccc(CCNCC(O)COc3ccc(OCc4ccccc4)cc3)cc2)S1 (stereo unspecified)
16 | 130 to 131 | CC(C)OC(=O)c1cn(-c2cccnc2)cn1
17 | 163 to 164 | Nc1cccc(Cn2c(-c3ccc(-c4cncnc4)cc3)ccc2-c2ccccc2Cl)n1
18 | 155 to 156 | Cc1[nH]cnc1CON1C(=O)c2ccccc2C1=O
19 | 154 to 155 | Cc1ccc(S(=O)(=O)Nc2ccc(CCCC(=O)O)nc2)cc1
20 | 106 to 108 | COC(=O)CCSCC(=O)c1ccc2c(c1)CC(=O)N2
21 | 225 to 227 | CSC1(SC)C(=O)CC2C3CCC4=CC(=O)C=CC4(C)C3(F)C(OC(C)=O)CC21C (stereo unspecified)
22 | 186 to 188 | COC(=O)c1ccc(NC(=O)c2cc(C(C)C)c(C(C)C)o2)cn1
23 | 250 to 252 | COc1cc2c(=O)n(CCCN3CCOCC3)c3c4ccccc4[nH]c(=O)c3c2cc1OC
24 | 162 to 164 | Cc1cn2c(C(F)(F)F)nnc2c2ccccc12
25 | 229 to 230 | CS(=O)(=O)c1ccc(-n2ncc(C#N)c2-c2ccc(-c3ccco3)cc2)cc1

Row | melting point [°C] | SMILES
26 | 200 to 201 | CCOC(=O)C(NC(C)=O)=C(c1ccc(F)cc1)c1ccc(F)cc1
27 | 225 to 227 | Cc1nc(-n2ccc(O)cc2=O)sc1C(=O)NCCc1ccc(F)cc1
28 | 215 to 225 | COc1cc2c(cc1OC)CN(CCc1ccc(NC(=O)c3cccc4c(=O)c5cccc(OC)c5[nH]c34)cc1)C2
29 | 258 to 259 | Nc1nc2ccccc2c2c1nc1n2CCOC1
30 | 179 to 180 | O=C(O)C(=O)c1ccc(OCCOc2ccc(-c3ccccc3)cc2)cc1
31 | 199 to 202 | Fc1cccc(F)c1-c1cnc(-c2ccc(-c3ccc(OC(F)(F)F)cc3)cc2)nn1
32 | 52 to 53 | CCCCCCCCCCCCCCOc1ccc(COC(=O)N(Cc2ccccn2)C(C)=O)cc1
33 | 167 to 168 | CC(C)(C)OC(=O)N1CCc2c(C=O)c3ccccc3n2CC1
34 | 172 to 175 | O=C1C(Cl)=C(C2CCC(c3ccc(Cl)cc3)CC2)C(=O)c2ccccc21 (stereo unspecified)
35 | 84 to 85 | O=C(Oc1ccccc1)N1CCC(S(=O)(=O)c2ccccc2)C1 (stereo unspecified)
36 | 192 to 194 | O=C(O)[C@H]1C=C[C@@H](c2ccc([N+](=O)[O-])cc2)n2c(=O)n(CCCl)c(=O)n21 (relative stereo)
37 | 65 to 70 | CCOC(=O)NN=C(c1ccc(Cl)cc1)c1ccc(CS(C)=O)cc1 (stereo unspecified)
38 | 78 to 79 | CCCCCCCN1C(=O)C2CC2(c2ccc(N)cc2)C1=O (stereo unspecified)
39 | 141 to 142 | c1ccc(-c2ccc(OC3CN(C(c4ccccc4)c4ccccc4)C3)cc2)cc1
40 | 70 to 71 | CCCCN(Cc1ccccc1)C(=O)Nc1ccc(C)cc1C
41 | > 260 | O=C(O)c1ccc(C(=O)/C=C/c2ccc(-c3cncnc3)cc2)cc1
42 | 120 to 123 | Cc1cc(Oc2c(Cl)cc(C(F)(F)F)cc2[N+](=O)[O-])n[nH]1
43 | 136 to 137 | O=C1c2cc(O)ccc2CCN1Cc1cccnc1
44 | 267 to 268 | Cc1ccc(Cn2c(-c3ccc(C(O)(C(F)(F)F)C(F)(F)F)cc3)cc3ccccc3c2=O)cc1
45 | 184 to 185 | COc1ccc(/C(=C\C=C\C(=O)O)c2ccccc2)cc1
46 | 140 to 142 | CSc1ncc(C(C)O)c(N)n1 (stereo unspecified)
47 | 84 to 86 | CSc1ccc(OC(C)c2ccnc3ncnn23)cc1 (stereo unspecified)
48 | 145 to 146 | CCOC(=O)c1ccc(OCc2nc(-c3ccco3)oc2C)c(Cl)c1
49 | 175 to 177 | CCCc1ccc2c(c1)C(=O)N(c1ccc(C(C)C(=O)O)cc1)C2 (stereo unspecified)
50 | 82 to 84 | COC(=O)c1cc(I)cc(C)c1O

Row | melting point [°C] | SMILES
51 | 308 to 311 | CC(C)C(C)NC1=NS(=O)(=O)c2cc([N+](=O)[O-])ccc2N1 (stereo unspecified)
52 | 312 to 313 | Cc1[nH]c(=O)c(C#N)cc1-c1ccc(S(C)(=O)=O)cc1
53 | 99 to 101 | O=C(NCc1ccccc1)c1ccnc(N2CCN(Cc3ccc(F)cc3)C2=O)c1
54 | 154 to 157 | COc1ccc(-c2cn(C)cc(-c3ccccc3)c2=O)cc1OC
55 | 198 to 200 | O=C1Nc2cc(C(F)(F)F)ccc2C1(O)c1cc(Cl)ccc1O (stereo unspecified)
56 | 148 to 150 | CSC1=Nc2ccccc2Cn2cccc21
57 | 145 | CCN(c1nc(C)cc(C(=O)N2CCOCC2)n1)c1ccc(C(C)C)cc1Br
58 | 178 to 182 | COC(=O)c1ccc2cccc(C#N)c2c1
59 | 128 to 130 | CCCCNC(=O)NS(=O)(=O)c1cc(C(F)(F)F)ccc1S(=O)(=O)N(C)C
60 | 154 to 158 | Oc1cccc(N2CCCC2)n1
61 | 88 | O=[N+]([O-])c1ccc(CSCc2c[nH]cn2)cc1
62 | 106 | OC(=S)Cc1ccc(Cl)cc1
63 | 78 to 79 | COC(=O)c1nc(Cl)cc(N)c1OC
64 | 67 to 68 | CCOC(=O)C(Cc1ccc(C(F)(F)F)cc1)C(=O)c1ccc(Oc2ccccc2)cc1 (stereo unspecified)
65 | 85 to 86 | OCc1nccc(N2CCCC2)c1Cl
66 | 156 to 157 | CSc1ccc(N)c(C(=O)NCC2CCN(C(c3ccccc3)c3ccccc3)CC2)c1
67 | 107 to 109 | O=C(O)C(=O)c1ccc(OCCOC23CC4CC(CC(C4)C2)C3)cc1
68 | 111 to 112 | COc1cc(C2(O)CCN(C(=O)OC(C)(C)C)CC2)ccc1Nc1ncc2ccc(-c3ccccc3N(C)S(C)(=O)=O)n2n1
69 | 169 to 170 | CC(C)C(CN(C)c1ccccc1)NS(=O)(=O)c1c(Cl)cc(Cl)cc1Cl (stereo unspecified)
70 | 106 | CCCN(CCCCNC(=O)N1CCc2cc(OC)c(OC)cc2C1)C1CCc2ncsc2C1 (stereo unspecified)
71 | 213 | O=S(=O)(c1ccc(S(=O)(=O)C2CCCCC2)nc1)C1CCCCC1
72 | 270 | Nc1cc(C(=O)O)cc(S(N)(=O)=O)c1Oc1cccc(C(F)(F)F)c1
73 | 192 to 194 | CC(C)C#CC1(C(F)(F)F)OCC(=O)Nc2ccc(F)c(F)c21 (stereo unspecified)
74 | 63.4 | CC(C)N(CCOC1CCCC2Oc3ccccc3OC12)C(C)C (stereo unspecified)
75 | 57 to 58 | CC(C)(C)c1ccc(C=C(SC(=Cc2ccc(C(C)(C)C)cc2)S(=O)(=O)c2ccccc2)S(=O)(=O)c2ccccc2)cc1

Row | melting point [°C] | SMILES
76 | 242 | CSc1nn(C(=S)Oc2ccccc2)c(=O)n1C
77 | 167 to 168 | CCOC(=O)N(C)C1CCc2c([nH]c3ccccc23)C1 (stereo unspecified)
78 | 108 to 109 | Cc1c(C)c2c(c(C)c1N)CC(C)(CSCCO)O2 (stereo unspecified)
79 | 122 to 124 | CON=Cc1cc(N2C(=O)C3=C(CCCC3)C2=O)c(Cl)cc1Cl
80 | 81 to 82 | ON=C(Cc1ccccc1)c1ccc(Cl)c(Cl)c1
81 | 180 to 183 | CC(C)CCc1c(-c2ccc(S(N)(=O)=O)cc2)cnn(-c2ccc(F)cc2)c1=O
82 | 184 to 185 | Cc1cc(C(=O)N2CCC3(CC2)CSC2=C(O3)c3ccccc3C(=O)C2=O)nn1C
83 | 189 to 191 | CC[C@@H]1CN(c2c(F)cc3c(=O)c(C(=O)O)cn4c3c2OC[C@@H]4C)C[C@H]1N
84 | 93 to 94 | c1cc2c3c(c1)nc(N1CCOCC1)n3CCC2
85 | 153 to 155 | CCn1c(=O)c2c(nc(/C=C/c3cccc(OC)c3)n2C)n(CC)c1=O
86 | 121 to 123 | COc1nc(C(F)(F)F)cc(=O)n1-c1cc(C(=O)OC(C)C)c(Cl)cc1F
87 | 174 | Cn1cnnc1C(c1ccc(C#N)cc1)c1cc2c3c(c1)c(-c1cccc(Cl)c1)cc(=O)n3CC2 (stereo unspecified)
88 | 214 to 215 | CN(Cc1ccccc1)c1ncnc2c(N3CCS(=O)CC3)nc(N3CCNCC3)nc12
89 | 172 to 173 | Clc1cc(N2Cc3ccccc3C2)nc2ccccc12
90 | 105 | CC1(O)c2ccccc2CCC1OS(=O)(=O)CC12CCC(CC1=O)C2(C)C (stereo unspecified)
91 | 84.8 to 88.7 | CCc1nc2cnc3ccccc3c2n1CCCCN
92 | 129 to 130 | CC(C)NC(=O)c1nc(-c2ccccc2F)c(-c2ccc(=O)n(C(C)C)n2)s1
93 | 130 | Oc1ccc(CN2CCOCC2)c2cccnc12
94 | 92.5 to 95 | CC(C)(C)c1cc(SCCC(=O)N2CCN(Cc3ccccc3)CC2)cc(C(C)(C)C)c1O
95 | 149 to 150 | CC(CSC(=S)c1cccs1)C(=O)N1CCCC1C(=O)O (stereo unspecified)
96 | 206 to 207 | CCCCNC(=O)NC1Cc2ccc(C3=NNC(=O)CC3)cc2C1 (stereo unspecified)
97 | 223 to 227 | CCC(c1oc2ccccc2c(=O)c1-c1ccc(F)cc1)n1cnc2c(N)ncnc21 (stereo unspecified)
98 | 113 to 115 | CCCCCCSc1nnc(N)s1
99 | 99 to 100 | CCCNCC(O)COc1ccccc1CCCc1cccc2[nH]ccc12 (stereo unspecified)

Row | SMILES | melting point [°C]
100 | O=C(CO)Cc1ccccc1 | 42 to 43
101 | CN1C(=O)C(NC(=O)c2cc3cc(O)ccc3[nH]2)N=C(c2ccccc2)c2ccccc21 (stereo unspecified) | 120 to 130
